# Test results taken from patent US11760773B2, “Small molecule drug conjugates of gemcitabine monophosphate” (MaveriX Oncology, Inc., priority 2018, dated 2023).
# Key:
# UT-SCC-5 = test: Tumor cell proliferation (alamarBlue) cytotoxicity assay, UT-SCC-5; assay type: cell-based, human; conditions: Homo sapiens; UT-SCC-5, 72 hours treatment
# Protocol: (§1) A tumor cell proliferation assay was used to determine cytotoxicity IC50 values for the phosphate prodrug Compounds 1-9, the parent non-phosphorylated SMDC parent compounds, and the effector (gemcitabine) across eight primary early-passage human head and neck squamous cell carcinoma cell lines including UT-SCC-5, UT-SCC-8, UT-SCC-9, UT-SCC-10, UT-SCC-14, UT-SCC-16A, UT-SCC-16B, and UT-SCC-24A.
# (§2) UTSCC cells were seeded at 4000 cells/100 I/well on 96-well black clear-bottom tissue culture plate. Cells were incubated at 37° C. and 5% CO2 overnight to allow them to recover and re-attach. The next day cells were treated with the test compound (0-100 μM) for 72 hours. After treatment, cell proliferation was measured by Fluorescent quantitation of alamarBlue reagent. The alamarBlue assay incorporates a fluorometric/colorimetric growth indicator based on detection of metabolic activity. Specifically, resazurin, the active ingredient of alamarBlue reagent, is blue in color and virtually non-fluorescent. Upon entering cells, resazurin is reduced to resorufin, a compound that is red in color and highly fluorescent.
# (§3) Continued cell growth maintains a reduced environment, therefore increasing the overall fluorescence and color of the media surrounding cells. The fluorescence intensity of alamarBlue reagent was directly proportional to cell number. To perform the alamarBlue assay, 10 I of alamarBlue reagent was added to each well and the plate was incubated at 37° C. for an additional 2 hour. Fluorescence intensity was measured at an excitation of 530 nm and an emission of 590 nm using a BioTek Synergy™ 2 microplate reader.
# (§4) Cell proliferation assays in triplicate were performed at each concentration. The fluorescent intensity data were analyzed using the computer software, Graphpad Prism. In the absence of the compound, the fluorescent intensity (Ft) in each data set was defined as 100%. In the absence of cells, the fluorescent intensity (Fb) in each data set was defined as 0%. The percent cell in the presence of each compound was calculated according to the following equation: % cell=(F−Fb)/(Ft−Fb), where F=the fluorescent intensity in the presence of the compound, Fb=the fluorescent intensity in the absence of cells, and Ft=the fluorescent intensity in the absence of the compound. The values of % cell versus a series of compound concentrations were then plotted using non-linear regression analysis of Sigmoidal dose-response curve generated with the equation Y=B+(T−B)/1+10^((Log EC50-X)×Hill Slope) where Y=percent cell, B=minimum percent cell, T=maximum percent cell, X=logarithm of compound and Hill Slope=slope factor or Hill coefficient. The IC50 value was determined by the concentration causing a half-maximal percent activity.
# [1] = Metabolic stability in liver hepatocytes, human; assay type: in vitro ADME
# UT-SCC-16A = test: Tumor cell proliferation (alamarBlue) cytotoxicity assay, UT-SCC-16A; assay type: cell-based, human; conditions: Homo sapiens, 72 hours treatment
# Protocol: as §1, §2, §3, §4
# [2] = Comparative dog plasma PK of Int 1-4 versus gemcitabine (study k); assay type: in vivo; conditions: male beagle dog; for MRT inf: read-out: MRT0-inf; for MRT last: read-out: MRT0-last; for Vd: read-out: Vdss
# Protocol: Objectives: to compare the plasma pharmacokinetics and stability of Int-4 in plasma following single intravenous infusion administration of Int 1-4 at 5 mg/kg and 10 mg/kg versus gemcitabine at 5 mg/kg in the male Beagle dog
# [3] = Metabolic stability in liver hepatocytes, rat; assay type: in vitro ADME
# [4] = Metabolic stability in liver hepatocytes, mouse; assay type: in vitro ADME
# UT-SCC-8 = test: Tumor cell proliferation (alamarBlue) cytotoxicity assay, UT-SCC-8; assay type: cell-based, human; conditions: Homo sapiens; UT-SCC-8, 72 hours treatment
# Protocol: as §1, §2, §3, §4
# [5] = Int 1-4 dog plasma PK (study j); assay type: in vivo; conditions: male beagle dog; for MRT inf: read-out: MRT0-inf; for MRT last: read-out: MRT0-last; for Vd: read-out: Vdss
# Protocol: Objectives: to compare the plasma pharmacokinetics and stability of Int 1-4 in plasma following single intravenous infusion administration of t 1-4 at 10 mg/kg and 20 mg/kg in the male Beagle dog.
# UT-SCC-9 = test: Tumor cell proliferation (alamarBlue) cytotoxicity assay, UT-SCC-9; assay type: cell-based, human; conditions: Homo sapiens; UT-SCC-9, 72 hours treatment
# Protocol: as §1, §2, §3, §4
# UT-SCC-24A = test: Tumor cell proliferation (alamarBlue) cytotoxicity assay, UT-SCC-24A; assay type: cell-based, human; conditions: Homo sapiens, 72 hours treatment
# Protocol: as §1, §2, §3, §4
# [6] = Metabolic stability in liver hepatocytes, monkey; assay type: in vitro ADME
# UT-SCC-14 = test: Tumor cell proliferation (alamarBlue) cytotoxicity assay, UT-SCC-14; assay type: cell-based, human; conditions: Homo sapiens; UT-SCC-14, 72 hours treatment
# Protocol: as §1, §2, §3, §4
# UT-SCC-10 = test: Tumor cell proliferation (alamarBlue) cytotoxicity assay, UT-SCC-10; assay type: cell-based, human; conditions: Homo sapiens; UT-SCC-10, 72 hours treatment
# Protocol: as §1, §2, §3, §4
# [7] = Liver microsomal stability, human; assay type: in vitro ADME; conditions: for microsomal CLint: human, liver microsomes
# [8] = Metabolic stability in liver hepatocytes, dog; assay type: in vitro ADME
# [9] = Comparative dog plasma PK of Int 1-4 versus gemcitabine (study k); assay type: in vivo; conditions: male beagle dog, after iv gemcitabine 5.29 mg/kg
# [10] = after iv Int 1-4 5 mg/kg (study k)
# [11] = after iv Int 1-4 10 mg/kg (study k)
# [12] = negative value indicates compound is stable, read-out: t1/2 mean ± SE
# [13] = after iv Int 1-4 10 mg/kg (study j)
# [14] = after iv Int 1-4 20 mg/kg (study j)
# [15] = after iv gemcitabine 5.29 mg/kg
structure (smiles),measurement,setting,value
"COc1cc(OC)c2oc(COC(=O)Nc3ccn([C@@H]4O[C@H](CO)[C@@H](O)C4(F)F)c(=O)n3)cc2c1 [Int 1-4, (5,7-di(methoxy)benzofuran-2-yl)methyl (1-((2R,4R,5R)-3,3-difluoro-4-hydroxy-5-(hydroxymethyl)tetrahydrofuran-2-yl)-2-oxo-1,2-dihydropyrimidin-4-yl)carbamate]",IC50,UT-SCC-5,16 nM
same,Slope Mean ± SE,[1],−0.003031 ± 0.001361
same,half-life,[1]; read-out: t1/2 mean ± SE,3.81 ± 1.71 h
same,IC50,UT-SCC-16A,138 nM
same,AUC(0-t),[2]; [10],2700 ng·h/mL
same,C0,[2]; [10],40000 ng/mL
same,clearance,[2]; [10],30.8 mL/min/kg
same,half-life,[2]; [10],0.25 h
same,AUC(0-inf),"[2]; after iv Int 1-4 5 mg/kg (study k), read-out: AUC0-inf",2730 ng·h/mL
same,Cmax,"[2]; after iv Int 1-4 5 mg/kg (study k), read-out: Cmax",30500 ng/mL
same,MRT inf,[2]; [10],0.12 h
same,MRT last,[2]; [10],0.11 h
same,Vd,[2]; [10],0.23 L/kg
same,AUC(0-t),[2]; [11],7930 ng·h/mL
same,C0,[2]; [11],90900 ng/mL
same,clearance,[2]; [11],43.3 mL/min/kg
same,half-life,[2]; [11],0.52 h
same,AUC(0-inf),"[2]; after iv Int 1-4 10 mg/kg (study k), read-out: AUC0-inf",7940 ng·h/mL
same,MRT inf,[2]; [11],0.23 h
same,MRT last,[2]; [11],0.22 h
same,Vd,[2]; [11],0.58 L/kg
same,Slope Mean ± SE,[3],−0.007701 ± 0.001794
same,half-life,[3]; [12],1.5 ± 0.35 h
same,Slope Mean ± SE,[4],−0.006655 ± 0.00081
same,half-life,[4]; read-out: t1/2 mean ± SE,1.73 ± 0.212 h
same,IC50,UT-SCC-8,32 nM
same,AUC(0-t),[5]; [13],4730 ng·h/mL
same,C0,[5]; [13],60500 ng/mL
same,clearance,[5]; [13],35.2 mL/min/kg
same,half-life,[5]; [13],0.54 h
same,AUC(0-inf),"[5]; after iv Int 1-4 10 mg/kg (study j), read-out: AUC0-inf",4740 ng·h/mL
same,MRT inf,[5]; [13],0.24 h
same,MRT last,[5]; [13],0.23 h
same,Vd,[5]; [13],0.504 L/kg
same,AUC(0-t),[5]; [14],7930 ng·h/mL
same,C0,[5]; [14],90900 ng/mL
same,clearance,[5]; [14],43.3 mL/min/kg
same,half-life,[5]; [14],0.52 h
same,AUC(0-inf),"[5]; after iv Int 1-4 20 mg/kg (study j), read-out: AUC0-inf",7940 ng·h/mL
same,MRT inf,[5]; [14],0.23 h
same,MRT last,[5]; [14],0.22 h
same,Vd,[5]; [14],0.58 L/kg
same,IC50,UT-SCC-9,39 nM
same,IC50,UT-SCC-24A,20 nM
same,Slope Mean ± SE,[6],−0.005018 ± 0.001425
same,half-life,[6]; [12],2.3 ± 0.653 h
same,IC50,UT-SCC-14,13 nM
same,IC50,UT-SCC-10,9 nM
same,half-life,[7]; human liver microsomes,30.8 h
same,Compound Remaining (% of 0 min) 0 min,"[7]; human liver microsomes, 0 min",100 % of 0 min
same,Compound Remaining (% of 0 min) 5 min,"[7]; human liver microsomes, 5 min",111 % of 0 min
same,Compound Remaining (% of 0 min) 15 min,"[7]; human liver microsomes, 15 min",94.0 % of 0 min
same,Compound Remaining (% of 0 min) 30 min,"[7]; human liver microsomes, 30 min",107 % of 0 min
same,Compound Remaining (% of 0 min) 45 min,"[7]; human liver microsomes, 45 min",99.9 % of 0 min
same,Compound Remaining (% of 0 min) control,"[7]; human liver microsomes, control",102 % of 0 min
same,microsomal CLint,[7],0.747 µL/min/mg
same,microsomal CLint,[7]; text value,0.75 µL/min/mg
same,Slope Mean ± SE,[8],−0.00433 ± 0.001287
same,half-life,[8]; [12],2.67 ± 0.793 h
O=c1ccn(C2OC(CO)C(O)C2(F)F)c(=O)[nH]1 (stereo not shown) [dFdU],AUC0-last,[2]; [10],9863 ng·h/mL
same,AUC(0-inf),[2]; [10],13743 ng·h/mL
same,Cmax,[2]; [10],715 ng/mL
same,MRT0-inf,[2]; [10],18.22 h
same,MRT0-last,[2]; [10],9.89 h
same,Tmax,[2]; [10],4.00 h
same,t1/2,[2]; [10],11.79 h
same,AUC0-last,[2]; [11],11700 ng·h/mL
same,AUC(0-inf),[2]; [11],13800 ng·h/mL
same,Cmax,[2]; [11],936 ng/mL
same,MRT0-inf,[2]; [11],12.99 h
same,MRT0-last,[2]; [11],8.94 h
same,Tmax,[2]; [11],2.00 h
same,t1/2,[2]; [11],8.40 h
same,AUC0-last,[2]; [15],20133 ng·h/mL
same,AUC(0-inf),[2]; [15],23967 ng·h/mL
same,Cmax,[2]; [15],1813 ng/mL
same,MRT0-inf,[2]; [15],13.31 h
same,MRT0-last,[2]; [15],8.71 h
same,Tmax,[2]; [15],3.00 h
same,AUC0-last,[5]; [13],13167 ng·h/mL
same,AUC(0-inf),[5]; [13],14300 ng·h/mL
same,Cmax,[5]; [13],1173 ng/mL
same,MRT0-inf,[5]; [13],15.33 h
same,MRT0-last,[5]; [13],9.20 h
same,Tmax,[5]; [13],3.33 h
same,t1/2,[5]; [13],10.0 h
same,AUC0-last,[5]; [14],31267 ng·h/mL
same,AUC(0-inf),[5]; [14],40233 ng·h/mL
same,Cmax,[5]; [14],2873 ng/mL
same,MRT0-inf,[5]; [14],15.97 h
same,MRT0-last,[5]; [14],9.27 h
same,Tmax,[5]; [14],2.00 h
same,t1/2,[5]; [14],10.53 h
same,t1/2,[9],8.55 h
